Read-outs that look alike come from different tables or passages of the source.
Legend:
[1] = target: T1, PBP3 from Escherichia coli (Escherichia coli, UniProt P0AD68); assay: Fluorescence polarization competition binding assay with Bocillin-FL
T1 construct: made in house
Outline: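 Fluorescence polarization competition assay with Bocillin-FL at 0.1 μM final and purified E. coli PBP3 at 1.5 μM final in 50 mM Hepes pH 8.0, 300 mM NaCl, 5% glycerol. Inhibitor preincubated with PBP3 for 30 min before probe addition; FP then read continuously for 60 min. Potency reported in binned categories.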

[2] = target: T2, PBP1a from Escherichia coli (Escherichia coli, UniProt P02918); assay: Radioligand competition binding assay with 14C-labeled boronic acid probe (Example 96)
T2 construct: made in house
Description: (§1) To determine the ability of boronic acid-based test PBP inhibitors to bind Penicillin Binding Proteins (PBPs), a radio-labelled boronic acid PBP inhibitor (Example 96) was used in competition binding assays to determine boronic acid PBP inhibitor binding to PBP1a or PBP1b from Escherichia coli. PBP1a and PBP1b were purified as described previously (Bertsche, U.; et al., J. Biol. Chem. 2005, 280 (45), 38096-38101; Born, P.; et al., J Biol. Chem. 2006. 281 (37), 26985-26993). To establish assay conditions for competition binding, an enzyme titration/saturation binding experiment was performed. Saturation binding was performed in a buffer comprised of 20 mM Tris (pH 7.5), 500 mM NaCl and 0.1% (v/v) TritonX-100, with PBP1a/PBP1b at a final concentration of 0.1 μM and 96 at final concentrations ranging from 0-100 μM. Mixtures were incubated for 60 minutes, then applied to Zeba Spin Desalting columns or plates (ThermoFisher Scientific) and centrifuged at 1000-1500×g for 2 minutes. The flow through, containing PBP bound with 96, was recovered and 100 μL mixed with 5 mL of UltimaGold liquid scintillation cocktail (Perkin Elmer), and the radioactivity counted using a Beckman Coulter LS 6500 Multipurpose scintillation counter. PBP binding of 96 approached saturation at 20 μM of ^14C-labeled probe. The competition binding assay was validated using the beta-lactam ampicillin, with 96 at a final concentration of 20 μM, PBP1a/PBP1b at a final concentration of 0.1 μM. PBP1a/PBP1b was incubated with ampicillin in a 96-well microplate for 60 minutes, then 96 was added and the mixtures incubated for an additional 60 minutes. The mixtures were then applied to Zeba Spin desalting plates and centrifuged at 1000×g for 2 minutes. The flow through was recovered and 100 μl mixed with 5 ml of UltimaGold liquid scintillation cocktail and the radioactivity counted. Ampicillin inhibited binding of 96 with an EC50 (the concentration of inhibitor required to reduce binding of 96 by 50%) of less than 0.5 μM. Binding assays with boronic acid PBP inhibitors were performed in an identical fashion. The potency of boronic acid PBP inhibitors was reported as the EC50 value.
(§2) Representative results are shown in Table 5, where A represents a potency of >100 μM, B represents a potency between 10 μM and 100 μM inclusive, and C represents a potency of <10 μM. NT=Not Tested.

[3] = target: T3, PBP1b from Escherichia coli (Escherichia coli, UniProt P02919); assay: as above
T3 construct: made in house
Description: as §1, §2

S. aureus ATCC 29213 = assay: Broth microdilution MIC assay; type: cell-based; settings: Staphylococcus aureus, ATCC29213; broth microdilution, 16-20 hours at 37° C.; read-out: S. aureus 29213 MIC
Outline: (§3)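 Per CLSI: log-phase cultures (3-5 h, 37° C) seeded at 5×10^5 CFU/mL into cation-supplemented Mueller-Hinton broth containing 2-fold compound dilutions. After 16-20 h at 37° C, MIC taken visually as lowest growth-free well, for S. aureus ATCC 29213 and E. coli 901C.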

[4] = tested on: hyper-permeable E. coli 901C; assay: Broth microdilution MIC assay; type: cell-based; settings: Escherichia coli, read-out: E. coli 901C MIC
Outline: as §3

E. coli DH5α/pLBII = assay: Broth microdilution MIC assay, empty vector control strain; type: cell-based; settings: Escherichia coli, read-out: E. coli DH5α/pLBII Microbiological Activity (MIC)
Outline: (§4)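 CLSI broth microdilution in cation-supplemented Mueller-Hinton broth, 2-fold compound dilutions, 5×10^5 CFU/mL inoculum, 16-20 h at 37° C, MIC read visually as lowest concentration without growth. E. coli DH5α carries CTX-M15 on pLBII under Lac promoter, or empty pLBII as control.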

[5] = tested on: E. coli DH5α/pLBII-CTX-M15; assay: Broth microdilution MIC assay, engineered strain producing CTX-M15; type: cell-based, Escherichia coli; settings: Escherichia coli, read-out: E. coli DH5α/pLBII-CTX-M15 Microbiological Activity (MIC)
Outline: as §4

[6] = target: T1, PBP3 from Escherichia coli; assay: Competition binding assay using Bodipy-FL boronic acid probe (Example 95); settings: PBP3 3 μM, read-out: E. coli K12 PBP3 Potency
Method: PBP3 from Escherichia coli was cloned and purified as described previously (King, D. T, et al., ACS Infectious Diseases 2015, 1, 175-184). To establish assay conditions for competition binding, an enzyme titration/saturation binding experiment was performed. […] FP was measured immediately upon addition of PBP3 (Ex, Em), using a Cytation3 (BioTek) microplate reader and measured continuously for 60 minutes. […] The competition binding assay was validated using the beta-lactam ampicillin, with Bocillin-FL at a final concentration of 0.1 μM, PBP3 at a final concentration of 1.5 μM and concentrations of ampicillin from 0-1000 μM. […] Binding assays for boronic acid PBP inhibitors were performed in an identical fashion. Representative results are shown in Table 3, where A represents a potency of >500 μM, B represents a potency between 30 μM and 500 μM inclusive, and C represents a potency of <30 μM. NT=Not Tested.
The method described in Example II was adapted to use a Bodipy-labeled boronic acid PBP inhibitor (Example 13 or Example 95) to assess PBP3 potency of boronic acid PBP inhibitors. The method is identical to that described in Example II for the Bocillin-FL competition binding assay, with the following exceptions: PBP3 from Escherichia coli is used at a final concentration of 3 μM. […]

E. coli K12 PBP1a = target: T4, E. coli K12 PBP1a (Escherichia coli, UniProt P02918); assay: Bocillin FL competition binding assay (SDS-PAGE gel, membrane PBPs); settings: 15 min. pre-incubation, membrane protein extracts, SDS-PAGE fluorescence scan
T4 construct: 100 μg's of total membrane protein extracts containing PBPs; endogenous in cells; host or cells: Escherichia coli K12 membrane fraction
Method: (§5) To determine the ability of test compounds to bind Penicillin Binding Proteins (PBPs), a competition binding assay using Bocillin FL (fluorescent derivative of penicillin V) was adapted from the classical method used to assess PBP potency of beta-lactams.
(§6) Penicillin binding proteins were isolated from Escherichia coli K12 by growth of Escherichia coli K12 from a single colony in 4 L of Luria-Bertani (LB) broth at 35° C. and 250 rpm to an OD600 nm of 0.5. The cells were harvested by centrifugation at 7,000×g for 10 min. at 4° C. Cells were resuspended and washed in 50 mM potassium phosphate pH 7.5. The cells were re-suspended in sonication buffer [50 mM Tris-HCl pH 7.5, 1 mM MgCl2, 1 mM beta-mercaptoethanol, and 5 μg/mL DNAse I] and sonicated by 4 passes of 30 seconds at 45 W on ice. The sample was clarified by centrifugation at 3,000×g to remove cell debris and unbroken cells and supernatant containing the membrane proteins was retained. The membrane proteins including the PBPs were further purified from soluble constituents by an ultracentrifugation step at 100,000×g for 30 min. at 4° C. The membrane proteins are washed twice with 10 mM sodium phosphate pH 7, resuspended in a volume of 5 mL, quantitated by BCA assay, adjusted to […] and frozen at −80° C. until use.
(§7) The adapted Bocillin FL competition binding assay described herein incorporates a 15 min. pre-incubation of test compound with isolated PBPs to attempt to balance the difference in mechanism of inhibition between beta-lactams (largely irreversible covalent bond to active site Serine) and the boron-containing PBP inhibitor test compounds (reversible covalent bond to active site Serine). Briefly, 50 μL reactions consisted of 100 μg's of total membrane protein extracts containing PBPs incubated with a dilution series of test compound ranging from 0.005 μg/mL to 2,480 μg/mL in 10 mM sodium phosphate pH7 containing 350 mM NaCl. Thirty minute reactions at 35° C. were initiated by addition of […] Bocillin FL, quenched by addition of SDS-PAGE loading buffer containing sodium dodecyl sulfate (SDS) and heated for 15 minutes at 95° C. to denature proteins in preparation for SDS-polyacrylamide gel electrophoresis. The Bocillin FL labeled PBPs are then separated by SDS-PAGE in Novex NuPage 10% Bis-Tris pre-cast gels (Invitrogen). The SDS-PAGE gel, post-electrophoresis, is then washed in water to remove excess SDS for 10 minutes at room temperature and placed on the scanning bed of a GE Healthcare/Amersham Biosciences Storm 860 fluorescence scanner. […] Effective PBP inhibitors are detected by a reduction in Bocillin FL labeling of the particular PBP over the dose range of test compound in a dose-responsive manner. […]

E. coli PBP3 = target: T5, E. coli PBP3 (Escherichia coli, UniProt P0AD68); assay: as above; settings: 15 min. pre-incubation, membrane protein extracts, SDS-PAGE fluorescence scan
T5 construct: 100 μg's of total membrane protein extracts containing PBPs; endogenous in cells; host or cells: Escherichia coli K12 membrane fraction
Method: as §5, §6, §7

E. coli PBP1b = assay: as above; design: species or system Escherichia coli; settings: 15 min. pre-incubation, membrane protein extracts, SDS-PAGE fluorescence scan
Method: as §5
Penicillin binding proteins were isolated from Escherichia coli K12 by growth of Escherichia coli K12 from a single colony in 4 L of Luria-Bertani (LB) broth at 35° C. and 250 rpm to an OD600 nm of 0.5. The cells were harvested by centrifugation at 7,000×g for 10 min. at 4° C. Cells were resuspended and washed in 50 mM potassium phosphate pH 7.5. […] The membrane proteins are washed twice with 10 mM sodium phosphate pH 7, resuspended in a volume of 5 mL, quantitated by BCA assay, adjusted to 10 μg/mL and frozen at −80° C. until use.
The adapted Bocillin FL competition binding assay described herein incorporates a 15 min. pre-incubation of test compound with isolated PBPs to attempt to balance the difference in mechanism of inhibition between beta-lactams (largely irreversible covalent bond to active site Serine) and the boron-containing PBP inhibitor test compounds (reversible covalent bond to active site Serine). […] The SDS-PAGE gel, post-electrophoresis, is then washed in water to remove excess SDS for 10 minutes at room temperature and placed on the scanning bed of a GE Healthcare/Amersham Biosciences Storm 860 fluorescence scanner. […]

[7] = 14C-labeled probe 96 at 20 μM, PBP 0.1 μM, read-out: E. coli K12 PBP1a EC50
[8] = 14C-labeled probe 96 at 20 μM, PBP 0.1 μM, read-out: E. coli K12 PBP1b EC50
[9] = PBP1a/PBP1b 0.1 μM, 96 at 20 μM, assay validation, read-out: EC50 (concentration of inhibitor required to reduce binding of 96 by 50%)

T2 sequence (P02918 whole entry): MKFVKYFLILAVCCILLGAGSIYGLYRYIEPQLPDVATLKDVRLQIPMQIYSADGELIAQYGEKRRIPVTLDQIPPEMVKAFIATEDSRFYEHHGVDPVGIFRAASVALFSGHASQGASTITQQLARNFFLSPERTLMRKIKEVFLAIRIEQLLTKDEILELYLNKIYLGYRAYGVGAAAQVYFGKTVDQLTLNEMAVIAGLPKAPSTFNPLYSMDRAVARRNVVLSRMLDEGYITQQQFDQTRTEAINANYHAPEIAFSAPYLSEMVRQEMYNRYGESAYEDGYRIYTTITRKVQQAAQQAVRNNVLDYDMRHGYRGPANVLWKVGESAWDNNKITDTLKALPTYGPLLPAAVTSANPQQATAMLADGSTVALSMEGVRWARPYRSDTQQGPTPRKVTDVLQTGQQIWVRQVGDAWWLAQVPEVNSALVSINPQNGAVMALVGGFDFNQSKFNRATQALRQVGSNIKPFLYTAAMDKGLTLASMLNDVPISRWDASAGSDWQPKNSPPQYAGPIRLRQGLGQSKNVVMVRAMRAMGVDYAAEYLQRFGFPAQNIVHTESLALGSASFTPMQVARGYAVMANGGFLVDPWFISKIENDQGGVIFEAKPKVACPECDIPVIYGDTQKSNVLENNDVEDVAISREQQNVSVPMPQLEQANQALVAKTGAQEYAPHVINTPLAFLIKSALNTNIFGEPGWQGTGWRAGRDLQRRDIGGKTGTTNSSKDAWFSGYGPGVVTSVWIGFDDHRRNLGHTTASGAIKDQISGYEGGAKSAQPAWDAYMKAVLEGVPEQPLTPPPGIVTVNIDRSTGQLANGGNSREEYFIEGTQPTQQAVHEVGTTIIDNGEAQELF
T1 sequence (P0AD68 1-577): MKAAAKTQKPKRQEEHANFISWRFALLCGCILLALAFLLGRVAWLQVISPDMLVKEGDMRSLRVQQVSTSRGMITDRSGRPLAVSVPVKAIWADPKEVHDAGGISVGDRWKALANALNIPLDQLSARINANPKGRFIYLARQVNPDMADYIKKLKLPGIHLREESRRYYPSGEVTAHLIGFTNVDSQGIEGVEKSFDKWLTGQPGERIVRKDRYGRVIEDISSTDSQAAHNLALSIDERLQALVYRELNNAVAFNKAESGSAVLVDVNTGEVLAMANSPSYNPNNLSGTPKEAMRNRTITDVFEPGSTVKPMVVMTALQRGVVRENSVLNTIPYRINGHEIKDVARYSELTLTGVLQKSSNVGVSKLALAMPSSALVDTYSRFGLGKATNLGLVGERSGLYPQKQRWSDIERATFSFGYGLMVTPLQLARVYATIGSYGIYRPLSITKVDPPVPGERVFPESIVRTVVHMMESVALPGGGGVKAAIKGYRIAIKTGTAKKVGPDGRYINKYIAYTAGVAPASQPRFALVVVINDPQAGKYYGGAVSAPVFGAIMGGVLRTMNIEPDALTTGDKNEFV
T3 sequence (P02919 whole entry): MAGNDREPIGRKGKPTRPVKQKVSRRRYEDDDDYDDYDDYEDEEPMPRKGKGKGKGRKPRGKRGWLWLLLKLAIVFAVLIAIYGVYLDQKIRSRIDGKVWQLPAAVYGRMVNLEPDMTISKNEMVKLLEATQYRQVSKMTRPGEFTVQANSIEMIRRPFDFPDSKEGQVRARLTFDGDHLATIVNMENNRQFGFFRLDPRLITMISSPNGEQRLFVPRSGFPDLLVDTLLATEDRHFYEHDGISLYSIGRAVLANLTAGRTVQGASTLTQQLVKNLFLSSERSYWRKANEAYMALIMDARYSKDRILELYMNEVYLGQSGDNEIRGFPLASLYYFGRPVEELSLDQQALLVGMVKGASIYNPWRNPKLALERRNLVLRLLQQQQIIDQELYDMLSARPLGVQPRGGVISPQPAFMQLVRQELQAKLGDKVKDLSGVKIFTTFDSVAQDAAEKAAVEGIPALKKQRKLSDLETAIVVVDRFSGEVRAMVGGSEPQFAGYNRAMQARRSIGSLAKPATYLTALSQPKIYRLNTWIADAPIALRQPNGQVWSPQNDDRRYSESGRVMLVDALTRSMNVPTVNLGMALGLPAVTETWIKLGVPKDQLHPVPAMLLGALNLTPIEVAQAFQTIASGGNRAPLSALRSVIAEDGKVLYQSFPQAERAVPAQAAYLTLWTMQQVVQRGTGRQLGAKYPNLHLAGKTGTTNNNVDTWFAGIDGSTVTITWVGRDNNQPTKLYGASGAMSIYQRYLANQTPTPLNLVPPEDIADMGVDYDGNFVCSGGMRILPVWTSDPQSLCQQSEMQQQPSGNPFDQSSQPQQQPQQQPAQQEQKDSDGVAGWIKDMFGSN
T4 sequence (P02918 whole entry): as the sequence (P02918 whole entry) above
T5 sequence (P0AD68 1-577): as the sequence (P0AD68 1-577) above

Row | Structure (SMILES) | EC50 [1] [µM] | EC50 [2, 7] [µM] | EC50 [3, 8] [µM] | MIC (S. aureus ATCC 29213) [µg/mL] | MIC [4] [µg/mL] | MIC (E. coli DH5α/pLBII) [µg/mL] | MIC [5] [µg/mL] | EC50 [6] [µM] | EC50 [2, 9] [µM] | EC50 [3, 9] [µM] | E. coliK12 PBP1a Potency (E. coli K12 PBP1a) | E. coli PBP3 Potency (E. coli PBP3) | E. coli PBP1b Potency (E. coli PBP1b)
1 | CCN1CCN(C(=O)N[C@H](C)C(=O)N[C@H]2Cc3cccc(C(=O)O)c3OB2O)C(=O)C1=O [Example 34, (R)-3-((R)-2-(4-Ethyl-2,3-dioxopiperazine-1-carboxamido)propanamido)-2-hydroxy-3,4-dihydro-2H-benzo[e][1,2]oxaborinine-8-carboxylic acid] | 30 to 500 | 10 to 100 | < 10 | > 128 | < 64 | 128 to 256 | 128 to 256 | – | – | – | – | – | –
2 | CC1(C)S[C@@H]2[C@H](NC(=O)[C@H](N)c3ccccc3)C(=O)N2[C@H]1C(=O)O [ampicillin, reference compound] | 1.4 | < 10 | < 10 | – | – | – | – | < 10 | < 0.5 | < 0.5 | – | – | –
3 | Nc1nc(C(NS(N)(=O)=O)C(=O)N[C@H]2Cc3cccc(C(=O)O)c3OB2O)cs1 (stereo partly drawn) [Example 26, (3R)-3-(2-(2-aminothiazol-4-yl)-2-(sulfamoylamino)acetamido)-2-hydroxy-3,4-dihydro-2H-benzo[e][1,2]oxaborinine-8-carboxylic acid] | 30 to 500 | < 10 | 10 to 100 | > 128 | < 64 | 32 to 64 | 32 to 64 | – | – | – | – | – | –
4 | N[C@H](C(=O)N[C@H]1Cc2cccc(C(=O)O)c2OB1O)c1ccccc1 [Example 3, (R)-3-((S)-2-amino-2-phenylacetamido)-2-hydroxy-3,4-dihydro-2H-benzo[e][1,2]oxaborinine-8-carboxylic acid] | – | – | – | > 128 | 64 to 128 | 128 to 256 | 128 to 256 | – | – | – | B (B represents a potency between 64 and 1000 μg/mL inclusive) | A (A represents a potency of >1000 μg/mL) | A (A represents a potency of >1000 μg/mL)
5 | CCN1CCN(C(=O)N[C@@H](C(=O)N[C@H]2Cc3cccc(C(=O)O)c3OB2O)C(C)C)C(=O)C1=O [Example 78, (R)-3-((R)-2-(4-ethyl-2,3-dioxopiperazine-1-carboxamido)-3-methylbutanamido)-2-hydroxy-3,4-dihydro-2H-benzo[e][1,2]oxaborinine-8-carboxylic acid] | < 30 | – | < 10 | 64 to 128 | < 64 | 32 to 64 | 32 to 64 | – | – | – | – | – | –

— patent publication US11332485B2, “Penicillin-binding protein inhibitors” (priority 2017, dated 2022)
